Measured values: a melting point compilation (Tetko et al.; mined from patent text by program, amines drawn as free bases though some values may be those of a salt)

| Structure (SMILES) | melting point |
| --- | --- |
| NC1=CC(N)=NCN1C(=O)OCc1ccccc1 | 194 °C |
| Nc1ccc(C(=O)c2ccccn2)cc1[N+](=O)[O-] | 186 to 187 °C |
| Cc1cccc(-c2nc(-c3ccc(S(C)=O)cc3)sc2-c2ccnc(C)c2)c1 (centres undefined) | 128 to 130 °C |
| COc1cc(-c2cc(=O)c3ccc(OCCCBr)cc3o2)cc(OC)c1OC | 156 to 157 °C |
| CSC(=NCCN1CCC(c2noc3cc(F)ccc23)CC1)NC#N | 148 to 151 °C |
| CC(=O)N(C)CCc1ccc(C=CC(=O)O)cc1 | 157 to 158 °C |
| CCOC1=CC2=CC[C@@H]3[C@H](CC[C@]4(CC)C(=O)C=C[C@@H]34)[C@H]2CC1 | 137 °C |
| Cc1cc2c3c(cc(C)c2[nH]c1=O)CC(C)(CBr)O3 (centres undefined) | 257 to 259 °C |
| CN1CCN(CCC(=O)N2c3ccccc3C(=O)Nc3cccnc32)CC1 | 232 to 233 °C |
| Nc1cc(C(F)(F)F)cc(C(F)(F)F)n1 | 70.8 to 71.2 °C |
| CCCCCCCCOc1ccc(-c2ccc(Br)cc2)cc1 | 120 °C |
| CCOC(=O)c1cn(-c2ccc([N+](=O)[O-])cn2)cn1 | 212 to 214 °C |
| CCc1cc(-c2[nH]c3ccccc3c2C)cc(CC)c1O | 112 °C |
| OC1CC(c2ccc(Oc3ccc(-c4ccc(Cl)cc4)cc3)cc2)Cc2ccccc21 (centres undefined) | 156 °C |
| N#CC1Cc2cc3cc[nH]c3cc21 (centres undefined) | 126 to 128 °C |
| CCCCc1c(C(=O)OCC)cc(OC)c2ccc(OC)cc12 | 44 to 45 °C |
| CC(=O)Oc1ccc(-c2ccc(C(C)=O)cc2)cc1 | 124 to 126 °C |
| CC(=O)NC[C@H]1CN(c2ccc(C(=O)c3cnc4ccc([N+](=O)[O-])cn34)cc2)C(=O)O1 | 223 to 225 °C |
| CCN(CC)C(=O)C1CCC2C3CNC4=CC(=O)C=CC4(C)C3CCC12C (centres undefined) | > 250 °C |
| Fc1cc(CBr)ccc1-c1nc2ccccc2o1 | 170 to 173 °C |
| CC(C)NC(=O)Nc1cccc2c1C(=O)C1(O)c3ccc(C(C)C)cc3OC21O (centres undefined) | 81 to 85 °C |
| N#Cc1cccnc1Oc1cccc(Cl)c1 | 88 to 90 °C |
| CC(C)(C)C(=O)C(Br)C(c1ccc(Cl)cc1Cl)S(=O)(=O)c1ccccc1 (centres undefined) | 135 to 136 °C |
| CCCc1nc(I)c(C=O)[nH]1 | 141 to 142 °C |
| CN(Cc1ccccc1)C1Cc2cccc3[nH]c(=O)n(c23)C1 (centres undefined) | 145 to 149 °C |

| Structure (SMILES) | melting point |
| --- | --- |
| CCOC(=O)c1sc(Oc2cccnc2)c2c1CCc1cnn(C)c1-2 | 247 to 248 °C |
| CC1(C)CC(NC(=O)C(=O)NNC(=O)COc2ccc(C(=O)c3ccccc3)c(O)c2)CC(C)(C)N1 | 191 to 195 °C |
| CCOC(=O)c1cnc2ncnn2c1Cl | 130 to 132 °C |
| Cn1c(-c2cc(C(F)(F)F)nn2-c2ncccc2Cl)nc2c(Cl)cccc2c1=O | 155 to 157 °C |
| CCn1c(CC(=O)O)ccc1C(=O)c1ccc(Cl)cc1 | 149 to 153 °C |
| CC(NC(=O)Cc1cc(F)cc(F)c1)C(=O)NC1C(=O)N(Cc2ccccc2)Cc2ccccc21 (centres undefined) | 144 to 145 °C |
| C[C@@H]([C@@H](O)c1ccc(OCc2ccccc2)cc1)N1CCC(O)(c2ccccc2)CC1 | 158 to 161 °C |
| O=C(O)COc1cc(Cl)ccc1C(=O)NCc1ccc(OC(F)(F)F)cc1 | 184 to 185 °C |
| O=C(O)c1cc(S(=O)(=O)N2CCCC(OCc3ccccc3)C2)ccc1Br (centres undefined) | 177 to 178 °C |
| Nc1ccc(S(=O)(=O)CCO)cc1C(=O)O | 164 to 167 °C |
| CC(=O)OCC1OC(OC2OC(CO)C(O)C(O)C2O)C(OC(C)=O)C(OC(C)=O)C1OC(C)=O (centres undefined) | 120 °C |
| COC(=O)c1cccc2nc(SCCN3CCN(CCNC(=O)Nc4c(C(C)C)cccc4C(C)C)CC3)oc12 | 186 to 188 °C |
| COc1ccc(C(F)(F)F)cc1NC(=O)Nc1ccc(-c2c(C(N)=O)[nH]c3ccccc23)cc1 | 178 to 180 °C |
| Cc1cc(-c2cc(C(F)(F)F)n3ncc(-c4cccnc4)c3n2)ccc1Cl | 193 °C |
| COC(=O)c1ccc(-c2ccc(C(OC)OC)cc2)cc1 | 76 to 77 °C |
| Cc1cc(C(O)(C(F)(F)F)C(F)(F)F)cc(C)c1OCCNCc1ccccc1 | 117 to 120 °C |
| N#CCc1nc(C(=O)c2ccccc2)no1 | 96.5 to 97.5 °C |
| CCN(CC)C(=O)c1ccc(C)c(-c2nc(NC3CCN(C)CC3)nc3c2CNC(=O)N3c2c(F)cccc2F)c1 | 165 to 169 °C |
| Cc1cc(C)c2c(c1)N[C@@H](C(=O)O)[C@@H](C)C2=O (relative stereo) | 156 to 157 °C |
| CC(=O)N1CCC(C(=O)c2ccc(F)cc2F)CC1 | 97 °C |
| CN(C)S(=O)(=O)c1ccc(Oc2ccc([N+](=O)[O-])cc2C#N)cc1 | 222 to 223 °C |
| COC(=O)c1nsc(NC=O)n1 | 210 to 215 °C |
| O=C(Cc1cncs1)c1ccc(Cl)cc1Cl | 75 to 77 °C |
| CC(C)(N)c1ccc(-c2nc(Nc3ccc(F)c(Cl)c3)ncc2C#N)cc1 | 237 °C |
| COc1ccc(CC(C)(N)C(=O)O)cc1OC (centres undefined) | 244 to 246 °C |

| Structure (SMILES) | melting point |
| --- | --- |
| O=C1CCN(c2ccc(CC3SC(=O)NC3=O)cc2F)CC1 (centres undefined) | 129 to 130 °C |
| CC(C(=O)O)c1ccc(-n2cccn2)c(Cl)c1 (centres undefined) | 83 to 85 °C |
| CC1(C)COC1(Cn1cncn1)c1ccc(F)cc1F (centres undefined) | 76 to 78 °C |
| CNC(=O)C(=NO)c1ccccc1Oc1ccccc1 | 183 to 184 °C |
| COc1ccc(CN(C)CCCOc2ccc(S(=O)(=O)c3c(C(C)C)n(C)c4ccccc34)cc2)cc1OC | 105 °C |
| O=C(O)c1c(Br)ccc(OC(F)(F)F)c1F | 112 °C |
| CC(C)(C)NS(=O)(=O)c1cccc(F)n1 | 88 to 90 °C |
| COc1c(NC(=O)c2cc3cccc(Oc4ccnc(NCCN5CCOCC5)n4)c3n2C)cc(C(C)(C)C)cc1NS(C)(=O)=O | 201 to 202 °C |
| O=C(Cc1c[nH]c2ccccc12)Nc1cc2c(cn1)[nH]c1ccccc12 | 252 to 254 °C |
| CCCc1nnc(/C=C/c2cc(OCc3ccc(OCc4nc(-c5ccco5)oc4C)c(OC)c3)nn2-c2ccccc2)o1 | 107 to 108 °C |
| CCOc1cc(C(F)(F)F)cc(Cl)c1-n1nc(C#N)c(SC(F)(F)F)c1N | 166 °C |
| CC(C)(C)c1ccc(S(=O)(=O)Nc2nc(-c3ncccn3)nc(OCCO)c2-c2cccs2)cc1 | 236 to 237 °C |
| Cc1sc2cc3ccccc3c(-c3ccc(O)c(C4CCCC4)c3)c2c1C | 156 to 158 °C |
| O=C(O)C(=O)CC(=O)c1cccn1Cc1ccc(-c2ccccc2)cc1 | 189 to 191 °C |
| COCOc1cccc(-c2ccc(-c3ccc(C(=O)O)cc3)cc2-c2ccc3c(c2)C(C)(C)CCC3(C)C)c1 | 103 to 104 °C |
| COc1cccc(NC(=O)NC2N=C(C)c3ccccc3N(CC(=O)N(C)c3ccccc3)C2=O)c1 (centres undefined) | 238 to 239 °C |
| Cn1ncc2c1CC(C)(C)C(C=O)C2=O (centres undefined) | 131 to 132 °C |
| CC(C)(C)OC(=O)C(F)=CC1C(C(=O)O)C1(C)C (centres undefined) | 90 °C |
| COc1cc(OCC(CO)CO)c(-c2cccs2)cc1C=O | 144 to 145 °C |
| CCn1cc(C(=O)O)c(=O)c2c(F)c(F)c(N3CCNC(C)C3)c(F)c21 (centres undefined) | 220 to 222 °C |
| CCOP(=O)(CNc1ccc2cc([N+](=O)[O-])cc(-c3cccc4ccccc34)c2n1)OCC | 187 to 188 °C |
| COc1ccc(C2=CCN(c3ccc(Cl)c(Cl)c3)C2=O)cc1OCCN1CCCCC1 | 98 to 99 °C |
| CCOc1cccc(C(CO)n2nc(C(=O)O)c3c2-c2ccc(OCc4cncnc4)cc2CC3)c1 (centres undefined) | 210 to 212 °C |
| CNc1nnc2ccc(-c3cccc(N(C)C(C)=O)c3)nn12 | 213 to 215 °C |
| CCOc1ccc2cccnc2c1[N+](=O)[O-] | 161 to 164 °C |

| Structure (SMILES) | melting point |
| --- | --- |
| CCCn1cc2c(C3C(=O)Nc4ccc(C#N)cc43)nc(NCc3cccnc3)nc2n1 (centres undefined) | 291 to 295 °C |
| CC1(C)Oc2ccccc2C=C1/C=C/C=C/C=C/C(=O)O | 180 to 182 °C |
| COC(=O)c1c(C(=O)OC)c(-c2ccc(OC)c(OC)c2)c2c(O)c(OC)c(OC)cc2c1O | 179 °C |
| CCC(=O)N1CCC(C(=O)OC2c3ccccc3C(=O)N2c2ccc3ccc(Cl)nc3n2)CC1 (centres undefined) | 189 °C |
| COC(=O)[C@@H]1[C@H](c2ccccc2)N1S(=O)(=O)c1ccc(C)cc1 (some centres undefined) | 85 to 87 °C |
| CC1(C)C(=O)C(C)(C)c2cc3[nH]c(SCc4ccccn4)nc3cc21 | 167 to 168 °C |
| COC(=O)CCCS(=O)(=O)c1c(Cc2cccc3ccccc23)sc2c1c(=O)n(C)c(=O)n2CC(C)C | 122 to 124 °C |
| COC(=O)c1nc(C2CC2)nc(SC)c1Cl | 74 to 75 °C |
| CCCc1nc2ccccc2c(=O)n1Cc1ccc(-c2ccccc2-c2nc(=O)o[nH]2)cc1 | 251 to 253 °C |
| CN1CCN(c2nc(C(F)(F)F)cs2)CC1 | 62 °C |
| COCc1cc(C2=C(Cl)CCN(C(=O)c3ccccc3)C2)no1 | 60.5 to 62 °C |
| O=C(O)COc1ccc2c(-c3ccccc3F)noc2c1 | 182 to 184 °C |
| CCCCCC[C@H](C)Oc1ccc(-c2ccc(O)c([N+](=O)[O-])c2)cc1 | 40 °C |
| COC(=O)C(C)(C)Cc1c(SC(C)(C)C)c2cc(OCc3ccc4cnccc4n3)ccc2n1Cc1ccc(Cl)cc1 | 152 to 155 °C |
| CCOC(=O)C(C(=O)N(C)C)=C(OC)c1ccc(Cl)cc1Cl | 88 to 92 °C |
| CCc1cc(Cl)c2c(=O)cc(C(=O)O)[nH]c2c1 | 248 to 250 °C |
| O=C(/C=C/CC1CCN(Cc2ccccc2)CC1)c1ccc(Nc2ncnc3c2CCC3)cc1 | 184 to 185 °C |
| CCCCc1nc(SC2CCCCC2)c(C(=O)O)n1Cc1cc2c(cc1Cl)OCO2 | 257 °C |
| C[N+]([O-])=C(Cn1ccnc1)c1ccc(F)cc1 | 81 to 84 °C |
| C#CCN(c1ccc(C(=O)OC(C)(C)C)c(F)c1)C1CCc2cc3nc(C)[nH]c(=O)c3cc21 (racemic) | 248 to 250 °C |
| CC(C)(C)CNc1cc(N2CCNCC2)nc(NCC(C)(C)C)n1 | 138 to 140 °C |
| COc1ccc(C#N)cc1C=NO | 142 to 144 °C |
| C#CC(=O)NC[C@@H]1CN2C(=O)C[C@H]2O1 (racemic) | 76.5 to 78 °C |
| CC(C)(C)c1cc(I)c2c(c1)CNC1(CCCCC1)O2 | 112 to 114 °C |
